# Data from patent publication US11241480B2, “Methods for modulation of dietary and microbial exposure with compositions comprising an EGFR ligand” (Washington University, priority 2017, dated 2022).
# Columns and labels:
# Format in all cases: in vivo, mice
# [1] = test system: colonic LP-APCs (LP-MNPs); assay: Luminal antigen delivery to LP-APCs/LP-MNPs, read out by ex vivo T cell co-culture; details: for luminal antigen uptake by colonic APCs (expansion of Ova-specific T-cells): DOL 18 mice, agent concurrent with luminal Ova
# Method: Analysis of luminal antigen delivery to LP-DCs: Mice received Ova 20 g/L (Sigma Aldrich) for 3 days prior to isolation of LP-APCs (dietary Ova FIG. 1C) or were anesthetized and 2 mg Ova (OTI assay) or 25 mg Ova (OTII assay) dissolved in phosphate buffered saline (PBS), or PBS alone (controls), was injected intraluminally into the SI or colon as previously described. Two hours later cell populations were isolated from the non-Peyer's patch bearing SI LP or non-colonic patch bearing colon LP. APC populations and Ova specific […] T-cells were isolated with flow cytometric cell sorting and cultured at a ratio of 1:10 APCs (1×10^4) to T-cells (1×10^5). As a positive control, 10 μg Ova was added to cultures of APC populations isolated from mice receiving luminal PBS. After 3 days, cultures were evaluated for the number of T-cells by flow cytometry and cell counting.
# LP-MNP/T cell co-culture: 1×10^5 flow cytometrically sorted splenic CD3+CD4+Vβ8.3+ CBir1 T cells or 1×10^5 flow cytometrically sorted splenic CD3^+CD4^+Vα2^+Vβ5^+ OTI T cells were cultured with […] CD45+ MHCII+ CD11c+ flow cytometrically sorted SI or colonic LP-MNPs isolated from mice two hours following intraluminal administration of 2 mg Ova or PBS. Some wells were cultured with 10 μg Ova or 10 μg CBir1 Flagellin as a positive control. After three days, cultured cells were counted and analyzed by flow cytometry to determine absolute number of transgenic cells to calculate fold increase of T cells.
# [2] = test system: colonic LP Tregs (FoxP3+); assay: Colonic LP Treg/iTreg populations by flow cytometry after early-life manipulation
# Method: EGFRi treatment: Mice were injected with 500 μg/kg tyrphostin AG1478 (an inhibitor of EGFR phosphorylation) in the neonatal, post-neonatal, or weaned phase on DOLs noted in the text or figure legends.
# Isolation of cellular populations and flow cytometry: Sls or colons were harvested, rinsed with PBS, and Peyer's patches or colonic patches were removed. Epithelial cellular populations were released by incubating for 15 min three times in a 37° C. rotating incubator in HBSS media (BioWhittaker, Walkersville, Md.) containing 5 mM EDTA, and splenic and LP cellular populations were isolated as described. SI and colonic APCs were identified as 7AAD^−, CD45^+, CD11c^+, MHCII^+ for flow cytometric sorting. FoxP3 subpopulations were identified as 7AAD^−, CD45^+, CD3^+, CD4^+, FoxP3^+, and either RORγt^+ or Helios^+. For intracellular antigens and cytokines, cells were fixed, permeabilized overnight, and stained per the manufacturers recommendations (eBioscience). Flow cytometry was performed with a FACScan cytometer (BD Biosciences, San Jose, Calif.) retrofitted with additional lasers. Data acquisition was performed using CellQuest (BD Biosciences) and Rainbow (Cytek, Fremont, Calif.) or FlowJo software (Tree Star, Ashland, Oreg.). Data analysis was performed on a Macintosh computer running FlowJo software.
# [3] = Serum cytokines and immunoglobulins by ELISA/multiplex after Ova rechallenge; details: dietary Ova DOL 0-30; EGFRi DOL 6 and 8 or DOL 24 and 26
# Method: Measurement of cytokines, EGF, and immunoglobulins: Cytokines were measured using the MILLIPLEX MAP Mouse Cytokine/Chemokine Magnetic Bead Panel (see e.g., FIG. 16D; EMD Millipore) or using ELISAs for EGF (R&D systems), IL13 (eBioscience), Eotaxin (R&D systems), IgE (eBiosciences), and MCPT1 (eBioscience) per the manufacturers recommendations. An ELISA comprised of Ova (Sigma-Aldrich A5503) for capture, and monoclonal anti-IgE antibody conjugated to alkaline phosphatase (Southern Biotech 1110-04) for detection, was used to measure Ova specific IgE.
Compound,"capacity of colonic LP-MNPs to stimulate CBir1 T cells ex vivo ([1]; post-weaning mice (DOL28), EGFR inhibition DOL24 and 26)","colonic LP Treg population, pattern and timing ([2]; EGFRi in neonatal phase, DOL 6 and 8)","colonic LP Treg population, pattern and timing ([2]; EGFRi in post-neonatal phase, DOL 14 and 16)","colonic LP Treg population, pattern and timing ([2]; EGFRi on DOL 24 and 26 (beyond weaning))",persistence of the diminished iTreg population ([2]; after manipulation of colonic GAPs (EGFRi neonatal or weaning phase)),"other immunoglobulins, Th1 and Th17 cytokines in serum [3]",serum Th2 mediators and IgE [3],luminal antigen uptake by colonic APCs (expansion of Ova-specific T-cells) [1],luminal antigen uptake by colonic APCs (expansion of Ova-specific T-cells) ([1]; listed as recombinant EGF)
"COc1cc2ncnc(Nc3cccc(Cl)c3)c2cc1OC [EGFRi, tyrphostin AG1478]",allowed colonic LP-MNPs from post-weaning mice to capture microbial antigen to stimulate CBir1 T cells ex-vivo,early peaks in colonic LP Tregs; these peaks rapidly decreased and were not maintained,resembled the endogenous Treg population of non-manipulated animals,rapidly lost the colonic Treg population,at least 8 months,did not have elevations in other immunoglobulins or prototypic Th1 or Th17 cytokines,"markedly elevated serum levels of Th2 mediators, and global and antigen-specific IgE",–,–
"EGF: recombinant murine EGF (Shenandoah); EGFR ligand, given luminally or intracolonically",–,–,–,–,–,–,–,impaired at expanding Ova-specific T-cells,inhibited GAPs and luminal antigen loading of LP-MNPs
